The source of these data is the NIST ThermoML archive (doi:10.1016/j.fluid.2019.01.028).

± gives the expanded uncertainty stated by the source.

The nature of one data set: activity coefficient (dimensionless); of the first substance listed, at infinite dilution; xn = mol fraction of the nth substance listed. To be noted: 313 K; Liquid; Chromatography; x1 = 0.
Take `Cc1ccccc1` [toluene] + CCCC[n+]1ccn(C)c1.O=S(=O)([N-]S(=O)(=O)C(F)(F)F)C(F)(F)F: the activity coefficient is 1.31 ± 0.11.
Same read-out and setting: to `Cc1ccco1` [2-methylfuran] + CCCCn1cc[n+](C)c1.[Cl-] belongs 3.61 ± 0.33; to `CCO` [ethanol] + CCCC[n+]1ccn(C)c1.O=S(=O)([N-]S(=O)(=O)C(F)(F)F)C(F)(F)F, 1.6 ± 0.14; to `Cc1ccc(C)o1` [2,5-dimethylfuran] + CCCCn1cc[n+](C)c1.[Cl-], 9.51 ± 0.87.
Same read-out and setting: to `Clc1ccccc1` [chlorobenzene] + CCCCn1cc[n+](C)c1.[Cl-] belongs 3.41 ± 0.31; to `CCc1ccccc1` [ethylbenzene] + CCCC[n+]1ccn(C)c1.O=S(=O)([N-]S(=O)(=O)C(F)(F)F)C(F)(F)F, 1.98 ± 0.18; to `c1ccccc1` [benzene] + CCCCn1cc[n+](C)c1.[Cl-], 4.09 ± 0.38.
The same measure, in the same setting: to `Cc1ccco1` [2-methylfuran] + CCCC[n+]1ccn(C)c1.O=S(=O)([N-]S(=O)(=O)C(F)(F)F)C(F)(F)F belongs 1.1 ± 0.09; to `CCc1ccco1` [2-ethylfuran] + CCCCn1cc[n+](C)c1.[Cl-], 5.85 ± 0.54; to `Cc1ccc(C)o1` [2,5-dimethylfuran] + CCCC[n+]1ccn(C)c1.O=S(=O)([N-]S(=O)(=O)C(F)(F)F)C(F)(F)F, 1.83 ± 0.16.
Consider `Cc1ccccc1` [toluene] + CCCCn1cc[n+](C)c1.[Cl-], for which the activity coefficient was 7.19 ± 0.66.
As for `c1ccoc1` [furan] + CCCC[n+]1ccn(C)c1.O=S(=O)([N-]S(=O)(=O)C(F)(F)F)C(F)(F)F, the activity coefficient amounted to 0.678 ± 0.06.
The same measure, in the same setting: next, `c1ccccc1` [benzene] + CCCC[n+]1ccn(C)c1.O=S(=O)([N-]S(=O)(=O)C(F)(F)F)C(F)(F)F: 0.938 ± 0.08.
Still for that read-out and setting: to `CCc1ccccc1` [ethylbenzene] + CCCCn1cc[n+](C)c1.[Cl-] belongs 12.5 ± 1.2.
The same measure, in the same setting: next, `Clc1ccccc1` [chlorobenzene] + CCCC[n+]1ccn(C)c1.O=S(=O)([N-]S(=O)(=O)C(F)(F)F)C(F)(F)F: 1.5 ± 0.13; `CCCO` [propan-1-ol] + CCCC[n+]1ccn(C)c1.O=S(=O)([N-]S(=O)(=O)C(F)(F)F)C(F)(F)F: 1.94 ± 0.17; `CCc1ccco1` [2-ethylfuran] + CCCC[n+]1ccn(C)c1.O=S(=O)([N-]S(=O)(=O)C(F)(F)F)C(F)(F)F: 1.47 ± 0.13.
For the compound `c1ccoc1` [furan] + CCCCn1cc[n+](C)c1.[Cl-], the activity coefficient came out at 1.41 ± 0.13.
The same measure, in the same setting: to `CO` [methanol] + CCCC[n+]1ccn(C)c1.O=S(=O)([N-]S(=O)(=O)C(F)(F)F)C(F)(F)F belongs 1.26 ± 0.11.

Staying with this data set, now noted: 323 K; Liquid; Chromatography; x1 = 0.
In the case of `Cc1ccccc1` [toluene] + CCCC[n+]1ccn(C)c1.O=S(=O)([N-]S(=O)(=O)C(F)(F)F)C(F)(F)F, the activity coefficient is 1.34 ± 0.12.
On the same count and under the same terms, next, `Cc1ccco1` [2-methylfuran] + CCCCn1cc[n+](C)c1.[Cl-]: 3.76 ± 0.35; `CCO` [ethanol] + CCCC[n+]1ccn(C)c1.O=S(=O)([N-]S(=O)(=O)C(F)(F)F)C(F)(F)F: 1.48 ± 0.13; `Cc1ccc(C)o1` [2,5-dimethylfuran] + CCCCn1cc[n+](C)c1.[Cl-]: 9.6 ± 0.88.
On the same count and under the same terms, to `CCO` [ethanol] + CCCCn1cc[n+](C)c1.[Cl-] belongs 0.208 ± 0.032; to `Clc1ccccc1` [chlorobenzene] + CCCCn1cc[n+](C)c1.[Cl-], 3.58 ± 0.33; to `CCc1ccccc1` [ethylbenzene] + CCCC[n+]1ccn(C)c1.O=S(=O)([N-]S(=O)(=O)C(F)(F)F)C(F)(F)F, 2.01 ± 0.18.
Same read-out and setting: next, `c1ccccc1` [benzene] + CCCCn1cc[n+](C)c1.[Cl-]: 4.14 ± 0.38; `Cc1ccco1` [2-methylfuran] + CCCC[n+]1ccn(C)c1.O=S(=O)([N-]S(=O)(=O)C(F)(F)F)C(F)(F)F: 1.12 ± 0.1.
As for `CCc1ccco1` [2-ethylfuran] + CCCCn1cc[n+](C)c1.[Cl-], the activity coefficient was determined as 6 ± 0.55.
Consider `Cc1ccc(C)o1` [2,5-dimethylfuran] + CCCC[n+]1ccn(C)c1.O=S(=O)([N-]S(=O)(=O)C(F)(F)F)C(F)(F)F, for which the activity coefficient was 1.85 ± 0.16.
Same read-out and setting: to `Cc1ccccc1` [toluene] + CCCCn1cc[n+](C)c1.[Cl-] belongs 7.24 ± 0.67.
Same read-out and setting: to `c1ccoc1` [furan] + CCCC[n+]1ccn(C)c1.O=S(=O)([N-]S(=O)(=O)C(F)(F)F)C(F)(F)F belongs 0.695 ± 0.061; to `c1ccccc1` [benzene] + CCCC[n+]1ccn(C)c1.O=S(=O)([N-]S(=O)(=O)C(F)(F)F)C(F)(F)F, 0.957 ± 0.081.
Take `CCc1ccccc1` [ethylbenzene] + CCCCn1cc[n+](C)c1.[Cl-]: the activity coefficient came out at 12.5 ± 1.2.
On the same count and under the same terms, next, `Clc1ccccc1` [chlorobenzene] + CCCC[n+]1ccn(C)c1.O=S(=O)([N-]S(=O)(=O)C(F)(F)F)C(F)(F)F: 1.52 ± 0.13; `CO` [methanol] + CCCCn1cc[n+](C)c1.[Cl-]: 0.1 ± 0.03.
On the same count and under the same terms, next, `CCCO` [propan-1-ol] + CCCC[n+]1ccn(C)c1.O=S(=O)([N-]S(=O)(=O)C(F)(F)F)C(F)(F)F: 1.77 ± 0.16; `CCc1ccco1` [2-ethylfuran] + CCCC[n+]1ccn(C)c1.O=S(=O)([N-]S(=O)(=O)C(F)(F)F)C(F)(F)F: 1.49 ± 0.13; `c1ccoc1` [furan] + CCCCn1cc[n+](C)c1.[Cl-]: 1.48 ± 0.13.
Regarding `CO` [methanol] + CCCC[n+]1ccn(C)c1.O=S(=O)([N-]S(=O)(=O)C(F)(F)F)C(F)(F)F, the activity coefficient amounted to 1.21 ± 0.1.

The data set is the same for the next values; noted with them: 333 K; Liquid; Chromatography; x1 = 0.
Turning to `Cc1ccccc1` [toluene] + CCCC[n+]1ccn(C)c1.O=S(=O)([N-]S(=O)(=O)C(F)(F)F)C(F)(F)F, the activity coefficient is 1.37 ± 0.12.
Still for that read-out and setting: next, `Cc1ccco1` [2-methylfuran] + CCCCn1cc[n+](C)c1.[Cl-]: 3.84 ± 0.35.
Same read-out and setting: next, `CCO` [ethanol] + CCCC[n+]1ccn(C)c1.O=S(=O)([N-]S(=O)(=O)C(F)(F)F)C(F)(F)F: 1.37 ± 0.12; `CCCO` [propan-1-ol] + CCCCn1cc[n+](C)c1.[Cl-]: 0.286 ± 0.035.
On the same count and under the same terms, to `Cc1ccc(C)o1` [2,5-dimethylfuran] + CCCCn1cc[n+](C)c1.[Cl-] belongs 9.61 ± 0.88.
As to `CCO` [ethanol] + CCCCn1cc[n+](C)c1.[Cl-], the activity coefficient was 0.213 ± 0.032.
Take `Clc1ccccc1` [chlorobenzene] + CCCCn1cc[n+](C)c1.[Cl-]: the activity coefficient was 3.71 ± 0.34.
Still for that read-out and setting: next, `CCc1ccccc1` [ethylbenzene] + CCCC[n+]1ccn(C)c1.O=S(=O)([N-]S(=O)(=O)C(F)(F)F)C(F)(F)F: 2.01 ± 0.18; `c1ccccc1` [benzene] + CCCCn1cc[n+](C)c1.[Cl-]: 4.15 ± 0.38; `Cc1ccco1` [2-methylfuran] + CCCC[n+]1ccn(C)c1.O=S(=O)([N-]S(=O)(=O)C(F)(F)F)C(F)(F)F: 1.15 ± 0.1.
On the same count and under the same terms, next, `CCc1ccco1` [2-ethylfuran] + CCCCn1cc[n+](C)c1.[Cl-]: 6.12 ± 0.56; `Cc1ccc(C)o1` [2,5-dimethylfuran] + CCCC[n+]1ccn(C)c1.O=S(=O)([N-]S(=O)(=O)C(F)(F)F)C(F)(F)F: 1.86 ± 0.16.
The same measure, in the same setting: next, `Cc1ccccc1` [toluene] + CCCCn1cc[n+](C)c1.[Cl-]: 7.23 ± 0.66.
